Laboratory results as given in patent US12220438B2, “Protein based cannabis compositions” (IZUN PHARMACEUTICALS CORP., priority 2019, dated 2025).
Read-outs that look alike come from different tables or passages of the source.

Tests used:
[1] = Attempt to dissolve pure CBD in beverages; assay type: physicochemical; conditions: 2.7 mg in 25 ml of beverage
Description: Samples of still water (Mei Eden bottled water), carbonated water (made by Tempo Soda), alcoholic lager beer (Carlsberg) and orange juice (made by Primor) were prepared using each of CBD-Whey and Whey only. 25 ml of beverage was prepared for each sample, and 45 mg of CBD-Whey (which contains 2.7 mg of CBD). […] The study continued with comparison of CBD-Whey and Whey only. Volunteers, who were Cannabis naïve, were given 8 samples, in a randomized order and were asked to fill a questionnaire relating to appearance, taste and smell of samples. Evaluations were performed by 6 volunteers for each of the 8 samples (four beverages with CBD-Whey and four beverages with Whey only.)

[2] = THC in plasma, intravenously, 5 mg/kg single dose
[3] = male, Sprague-Dawley, rat, plasma, iv, 5 mg/kg

| SMILES | dissolution in beverages [1] | AUC0−∞/D [2] [kg·ng·h/mL/mg] | CL/F [2] [mL/min/kg] | Cmax/D [2] [kg·ng/mL/mg] | F (THC, intravenously, 5 mg/kg single dose (reference)) [%] | AUC(0-inf) [3] [ng·h/mL] | AUC(0-t) [3] [ng·h/mL] | Cmax [3] [ng/mL] | Tmax [3] [min] | half-life (male, Sprague-Dawley, rat, plasma, iv, 5 mg/kg, t1/2, THC in plasma, intravenously, 5 mg/kg single dose) [h] | half-life (male, Sprague-Dawley, rat, plasma, iv, 5 mg/kg, terminal t1/2, after IV administration, analysis that included the 24 hr time point) [h] |
| --- | --- | --- | --- | --- | --- | --- | --- | --- | --- | --- | --- |
| C=C(C)[C@@H]1CCC(C)=C[C@H]1c1c(O)cc(CCCCC)cc1O [CBD, cannabidiol] | crystalline CBD was visible | – | – | – | – | – | – | – | – | – | – |
| CCCCCc1cc(O)c2c(c1)OC(C)(C)[C@@H]1CCC(C)=C[C@@H]21 [IV, tetrahydrocannabinol] | – | 121 | 137.2 | 202 | 100 | 607 | 575 | 1010 | 5 | 10.8 | ~10 |
